# In patent US20070027118A1 (priority 2005, published 2007):
# Target: 11β-hsd-1 enzyme (Homo sapiens, UniProt P28845)
# Assay: biochemical
# Details: read-out: % Inh @ 0.1 μM
# Protocol: Percentage of inhibition was determined in a 100 mM Triethanolamine buffer, pH 8.0, 200 mM NaCl, 0.02% n-dodecyl β-D-maltoside and 5 mM β-ME. A typical reaction was carried on a Corning® u-bottom 96-well plate and is described as follows: 11β-hsd-1 enzyme (5 nM, final concentration) was pre-incubated in the presence of the inhibitor and NADPH (500 μM, final concentration) for at least 30 minutes
# in the assay buffer. When pre-incubation was completed, the reaction was initiated by adding the regenerating system (2 mM Glucose-6-Phosphate, 1U/mL Glucose-6-Phosphate dehydrogenase, and 6 mM MgCl2, all the concentration reported are final in the assay buffer), and 3H-cortisone (200 nM, final concentration). After 60 minutes, 60 μL of the assay mixture was transferred to a second 96-well plate and mixed with an equal volume of dimethylsulfoxide to stop the reaction. A 15 μL aliquot from the reaction mixture was loaded into a C-18 column (Polaris C18-A, 50×4.6 mm, 5 μ, 180 Angstrom from Varian) connected to an automated High-throughput Liquid Chromatography instrument developed by Cohesive Technologies Inc of Franklin, Mass., with a […] model 3 Radio-HPLC detector from IN/US of Tampa, Fla. The substrate and product peaks were separated by using an isocratic mixture of 43:57 methanol to water (v/v) at a flow rate of 1.0 mL/min.
# Percent Inhibition was calculated based on the following equation: (1-(3H-Cortisol peak area in the […] of inhibitor)×100).
# Sequence of 11β-hsd-1 enzyme (P28845 whole entry, species assumed): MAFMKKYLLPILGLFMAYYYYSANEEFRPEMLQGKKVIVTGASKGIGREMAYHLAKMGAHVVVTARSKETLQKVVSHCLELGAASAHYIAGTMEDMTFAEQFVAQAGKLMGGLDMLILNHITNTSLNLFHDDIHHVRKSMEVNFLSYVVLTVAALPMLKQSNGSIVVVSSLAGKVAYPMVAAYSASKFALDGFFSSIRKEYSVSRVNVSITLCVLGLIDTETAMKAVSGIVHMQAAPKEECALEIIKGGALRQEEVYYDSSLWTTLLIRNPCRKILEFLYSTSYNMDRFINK
row,SMILES,inhibition at 0.1 µM
1,Cc1cccc(NS(=O)(=O)N2CCN(c3ncccc3C)CC2)n1 [Example 4],26.6%
2,Cc1cccc(NS(=O)(=O)N2CCN(c3ncccc3C(F)(F)F)CC2)n1 [Example 5],44.6%
3,Cc1ccnc(N2CCN(S(=O)(=O)Nc3cccc(C)n3)CC2)c1 [Example 6],56.2%
4,Cc1cccc(NS(=O)(=O)N2CCN(Cc3ccccc3)CC2)n1 [Example 7],17.7%
5,Cc1cccc(NS(=O)(=O)N2CCOCC2c2ccc(F)cc2)n1 (stereo not shown) [Example 21],10.6%
6,Cc1cccc(NS(=O)(=O)N2C[C@H]3C[C@@H]2CN3c2ccc(C#N)cn2)n1 [Example 24],0%
7,"O=S(=O)(Nc1ccc2ncccc2n1)N1CCC(c2ccc(C(F)(F)F)cn2)CC1 [Example 36, N-1,5-naphthyridin-2-yl-4-[5-(trifluoromethyl)pyridin-2-yl]piperidine-1-sulfonamide]",89%
8,"C[C@@H]1CN(S(=O)(=O)Nc2cccc(CO)n2)CCN1c1ncc(F)cn1 [Example 40, (3R)-4-(5-fluoropyrimidin-2-yl)-N-[6-(hydroxymethyl)pyridin-2-yl]-3-methylpiperazine-1-sulfonamide]",100%
9,Cc1cc(C)nc(NS(=O)(=O)N2CCc3ccc(S(C)(=O)=O)cc3CC2)c1 [Example 41],55%
10,Cc1cc(N)nc(NS(=O)(=O)N2CCn3c(nc4cc(C(F)(F)F)ccc43)C2)c1 [Example 47],100%
11,Cc1cc(N)nc(NS(=O)(=O)N2CCn3c(nc4cc(Cl)ccc43)C2)c1 [Example 48],100%
12,Cc1cc(N)nc(NS(=O)(=O)N2CCn3c(nc4cccc(C)c43)C2)c1 [Example 49],100%
13,Cc1cc(N)nc(NS(=O)(=O)N2CCn3c(nc4ccccc43)C2)c1 [Example 50],100%
14,Cc1cc(N)nc(NS(=O)(=O)N2CCn3cc(C(F)(F)F)nc3C2)c1 [Example 51],38%
15,Cc1cc(N)nc(NS(=O)(=O)N2CCn3c(-c4ccccc4)cnc3C2)c1 [Example 52],100%
16,Cc1cc(N)cc(NS(=O)(=O)N2CCC(Oc3ccccc3F)CC2)c1 [Example 53],100%
17,Cc1cc(N)cc(NS(=O)(=O)N2CCC(Oc3cccc(F)c3)CC2)c1 [Example 54],100%
18,Cc1cc(N)cc(NS(=O)(=O)N2CCC(Oc3ccccc3)CC2)c1 [Example 55],92%
19,Cc1cc(N)cc(NS(=O)(=O)N2CCC(C(F)(F)F)CC2)c1 [Example 56],100%
20,"C[C@H]1CN(S(=O)(=O)Nc2cccc(CO)n2)CCN1c1ccc(C#N)cn1 [Example 58, (3S)-4-(5-cyanopyridin-2-yl)-N-[6-(hydroxymethyl)pyridin-2-yl]-3-methylpiperazine-1-sulfonamide]",100%
21,"CC1CN(c2ccc(C#N)cn2)CCN1S(=O)(=O)Nc1cccc(CO)n1 (stereo not shown) [Example 59, 4-(5-cyanopyridin-2-yl)-N-[6-(hydroxymethyl)pyridin-2-yl]-2-methylpiperazine-1-sulfonamide]",94.2%
22,"CCc1cccc(NS(=O)(=O)N2CCC(c3ncccn3)CC2)n1 [Example 60, N-(6-ethylpyridin-2-yl)-4-pyrimidin-2-ylpiperidine-1-sulfonamide]",7%
23,CCc1cccc(NS(=O)(=O)N2CCN(C(C)C)CC2)n1 [Example 61],0%
24,CCc1cccc(NS(=O)(=O)N2CCN(C3CCCCC3)CC2)n1 [Example 62],0%
25,CCc1cccc(NS(=O)(=O)N2CCC3(CCc4cc(Cl)ccc4O3)CC2)n1 [Example 63],40%
26,CCc1cccc(NS(=O)(=O)N2CCC3(CCc4cc(C)ccc4O3)CC2)n1 [Example 64],5.4%
27,CCc1cccc(NS(=O)(=O)N2CCC3(CC2)CC(=O)c2cc(Cl)ccc2O3)n1 [Example 65],4.7%
28,CCc1cccc(NS(=O)(=O)N2CCC3(CCc4ccccc4O3)CC2)n1 [Example 66],42.8%
29,CCc1cccc(NS(=O)(=O)N2CCC(c3c[nH]c4ccccc34)CC2)n1 [Example 67],62.6%
30,CCc1cccc(NS(=O)(=O)N2C[C@@H]3C[C@H]2CN3c2ccccc2)n1 [Example 69],5.6%

# Same assay, conditions: read-out: % Inh @ 0.1 mM
row,SMILES,inhibition
1,"Cc1ccc(C2(C)CN(S(=O)(=O)Nc3cccc(C)n3)CCO2)cc1 (stereo not shown) [Example 70, 2-methyl-2-(4-methylphenyl)-N-(6-methylpyridin-2-yl)morpholine-4-sulfonamide]",85.3%
2,"CCc1cccc(NS(=O)(=O)N2CCCC(c3nc(C)no3)C2)n1 (stereo not shown) [Example 72, N-(6-ethylpyridin-2-yl)-3-(2-methyl-124-oxadiazol-5-yl)piperidine-1-sulfonamide]",56.7%
3,"CCc1cccc(NS(=O)(=O)N2CCC(c3cccc(C(=O)Nc4ccccn4)c3)CC2)n1 [Example 73, 3-(1-{[(6-ethylpyridin-2-yl)amino]sulfonyl}pipendin-4-yl)-N-pyridin-2-ylbenzamide]",49.6%
4,"CCc1cccc(NS(=O)(=O)N2CCC(c3cccc(C(N)=O)c3)CC2)n1 [Example 75, 3-(1-{[(6-ethylpyridin-2-yl)amino]sulfonyl}piperidin-4-yl)benzamide]",45.6%
5,"CCc1cccc(NS(=O)(=O)N2CCC(c3ccc(C(=O)NC)cc3)CC2)n1 [Example 76, 4-(1-{[(6-ethylpyridin-2-yl)amino]sulfonyl}piperidin-4-yl)-N-methylbenzamide]",34.4%
6,"CCc1cccc(NS(=O)(=O)N2CCC(c3ccc(C(=O)N4CCOCC4)cc3)CC2)n1 [Example 77, N-(6-ethylpyridin-2-yl)-4-[4-(morpholin-4-ylcarbonyl)phenyl]piperi-din-1-sulfonamide]",48.4%
7,"CCc1cccc(NS(=O)(=O)N2CCC(c3ccc(C(=O)NC4CC4)cc3)CC2)n1 [Example 78, N-cyclopropyl-4-(1-{[(6-ethylpyridin-2-yl)amino]sulfonyl}piperi-din-4-yl)benzamide]",64.2%
8,"CCc1cccc(NS(=O)(=O)N2CCC(c3cccc(C(=O)N(CC)CC)c3)CC2)n1 [Example 79, NN-diethy-3-(1-{[(6-ethylpyridin-2-yl)amino]sulfonyl}piperidin-4-yl)benzamide]",51.1%
9,"CCc1cccc(NS(=O)(=O)N2CCC(COCc3ccccc3F)CC2)n1 [Example 92, N-(6-ethylpyridin-2-yl)-4-{[(2-fluorobenzyl)oxy]meth-yl}piperidine-1-sulfonamide]",67.5%
10,"CCc1cccc(NS(=O)(=O)N2CCC(COCc3cccc(OC)c3)CC2)n1 [Example 94, N-(6-ethylpyridin-2-yl)-4-{[(3-methoxybenzyl)oxy]-methyl}pipendine-1-sulfonamide]",40.7%
11,"CCc1cccc(NS(=O)(=O)N2CCC(n3c(C)nnc3CC)CC2)n1 [Example 107, 4-(3-ethyl-5-methyl-4H-124-triazol-4-yl)-N-(6-ethyl-pyridin-2-yl)piperidine-1-sulfonamide]",0%
12,"CCOCC1CCN(S(=O)(=O)Nc2cccc(CC)n2)CC1 [Example 109, 4-(ethoxymethyl)-N-(6-ethylpyridin-2-yl)pipendine-1-sulfonamide]",58.7%
13,"CCc1cccc(NS(=O)(=O)N2CCC(Oc3ccc(C#N)cc3OC)CC2)n1 [Example 110, 4-(4-cyano-2-methoxy-phenoxy)-N-(6-ethylpyridin-2-yl)piperidine-1-sulfonamide]",8%
